Where two headings read alike, the source gives them in different places. One block for each molecule: values may come before it. Non-standard residues stand in square brackets, D forms with d. Residues, ends and D or L forms follow the SMILES beside them. No end group written: not given here. Aib = CC(C)(N)C(=O)O
How the values were obtained:
[1] = format: physicochemical
Protocol: (§1) The compound of SEQ ID NO: 2 is dissolved in H2O to a 10 mg/mL concentration (peptide content), filtered through a 0.22 μm filter (Millex, SLGV004SL), and then diluted to 1 mg/mL in Buffer P5 (10 mM Histidine, 150 mM NaCl in H20, pH 5.0) or Buffer P6 (10 mM Histidine, 150 mM NaCl in H20, pH 6.0). Each solution is transferred to three vials and autoclaved. Samples are then maintained at 4° C., 30° C. and 40° C. Samples are visually assessed at different time points for turbidity and phase separation. Stability of the compound is assessed by analytical reverse phase HPLC (RP-HPLC) on a Phenomenex Aeris Widepore, 3.6 μm, XB-C18 4.6×100 mm column (P/NO 00D-4482-E0) heated at 60° C. with a AB (A=0.05% TFA/H2O; B=0.04% TFA/acetonitrile) gradient of 5% B isocratic over 5 min, 5 to 25% B over 20 minutes, 25 to 30% B over 30 min, and 30 to 45% B over 10 min with a flow rate of 1.2 mL/min (wavelength of 220 ηm).

[2] = Chemical stability by RP-HPLC (% main peak); format: physicochemical; conditions: for 4° C. % Main Peak / 30° C. % Main Peak / 40° C. % Main Peak: 4 weeks
Protocol: as §1
The compound of SEQ ID NO: 2 also maintains chemical stability at pH 5 (Buffer P5) and pH 6 (Buffer P6) when maintained at 4° C., 30° C. and 40° C. for 4 weeks.

[3] = Physical stability test using Thioflavin T binding assay (fibrillation); format: physicochemical; conditions: 25° C.; for Thioflavin T fluorescence t = 0 h / Thioflavin T fluorescence t = 48 h / Thioflavin T fluorescence t = 96 h: 1 mg/mL, stirred 300 rpm
Protocol: Fibrillation is a common problem when glucagon is formulated in aqueous solution. To assess the level of fibrillation of the compound of the present invention, a Thioflavin T binding assay is performed.
All samples are mechanically stressed at 25° C. in a magnetic stir plate set at 300 rpm. […] Raw data is collected with Softmax Pro 5.4.1 (Molecular Devices) and imported to Excel.

[4] = tested on: blood glucose levels; experiment: Effects of compound on blood glucose levels in C57/Bl6 male mice; format: in vivo; conditions: for Blood glucose levels: mean ± SEM of 4 mice
Protocol: To determine the effects of the compound of SEQ ID NO: 2 on blood glucose levels, the compound is administered to C57/B 16 mice. Three month old male C57BL6 mice (Harlan Laboratories) are used Animals are individually housed in a temperature-controlled (24° C.) facility with a 12 hour light/dark cycle, and have free access to food and water. After 1 week acclimation to the facility, mice are randomized to treatment groups (n=4/group). Test compound is formulated in Buffer 2 (see Physical stability test using Thioflavin T binding assay). On the morning of test, food is removed at 08:00 AM. Two hours after food is removed, the test compound is given subcutaneously at 0, 0.3, 1, 3 or 10 μg/kg doses. Blood glucose is measured at time 0, 15, 30, 60 and 120 minutes after test compound administration with an ACCU-CHECK® (Roche Diagnostics) glucometer. […] Results are expressed as mean±standard error mean (SEM) of 4 mice per group.
Blood glucose levels at 10 μg/kg of compound of SEQ ID NO: 2 is taken as the maximum value.

[5] = target: T1, human glucagon receptor (hGR) (human, UniProt P47871 26-477); experiment: cell-based or functional assay
T1 sequence (P47871 26-477): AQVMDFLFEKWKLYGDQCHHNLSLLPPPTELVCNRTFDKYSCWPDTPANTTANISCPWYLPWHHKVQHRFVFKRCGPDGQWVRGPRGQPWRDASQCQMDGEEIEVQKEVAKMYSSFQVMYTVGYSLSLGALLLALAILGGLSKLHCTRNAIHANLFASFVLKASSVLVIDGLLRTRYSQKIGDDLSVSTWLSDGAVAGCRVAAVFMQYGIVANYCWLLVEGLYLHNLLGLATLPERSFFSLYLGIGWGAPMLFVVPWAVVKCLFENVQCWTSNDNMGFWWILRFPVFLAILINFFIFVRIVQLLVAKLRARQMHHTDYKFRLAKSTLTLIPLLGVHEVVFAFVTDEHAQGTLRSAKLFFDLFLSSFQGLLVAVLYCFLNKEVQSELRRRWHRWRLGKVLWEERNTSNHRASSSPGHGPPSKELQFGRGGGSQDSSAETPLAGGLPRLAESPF

[6] = target: T1, human glucagon receptor (hGR); experiment: SPA competition against 125I-labelled glucagon on 293HEK hGR membranes, Cheng-Prusoff
Protocol: Plates are sealed, mixed end over end, and read with a MicroBeta® scintillation counter after 12 hours of settling time at room temperature.

[7] = target: T2, mouse glucagon receptor (mGR) (mouse, UniProt Q61606 27-485); experiment: SPA competition against 125I-labelled glucagon on 293HEK mGR membranes, Cheng-Prusoff
T2 construct: whole, on cells; Assay used crude plasma membranes of the expressing 293HEK cells
T2 sequence (Q61606 27-485): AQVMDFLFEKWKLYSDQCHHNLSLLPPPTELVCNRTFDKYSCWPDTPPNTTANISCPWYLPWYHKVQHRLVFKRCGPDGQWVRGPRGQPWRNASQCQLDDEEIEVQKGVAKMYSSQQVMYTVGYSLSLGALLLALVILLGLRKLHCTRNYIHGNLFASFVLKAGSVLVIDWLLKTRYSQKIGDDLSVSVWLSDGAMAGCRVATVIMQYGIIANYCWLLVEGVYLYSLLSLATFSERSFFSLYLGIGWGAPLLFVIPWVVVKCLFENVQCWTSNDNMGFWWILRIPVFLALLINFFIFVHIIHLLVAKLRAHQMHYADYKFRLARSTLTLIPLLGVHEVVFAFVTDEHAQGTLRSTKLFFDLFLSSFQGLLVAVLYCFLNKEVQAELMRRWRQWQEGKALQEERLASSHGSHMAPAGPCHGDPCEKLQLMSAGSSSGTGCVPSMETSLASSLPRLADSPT

[8] = target: T3, human glucose-dependent insulinotropic peptide receptor (GIP-R) (human, UniProt P48546 22-466); experiment: SPA competition against radioiodinated GIP on CHO-S human GIP-R membranes, Cheng-Prusoff
T3 construct: whole, on cells; Assay used crude plasma membranes of the expressing CHO-S cells; also called human GIP-R; hGIP-R
T3 sequence (looked up): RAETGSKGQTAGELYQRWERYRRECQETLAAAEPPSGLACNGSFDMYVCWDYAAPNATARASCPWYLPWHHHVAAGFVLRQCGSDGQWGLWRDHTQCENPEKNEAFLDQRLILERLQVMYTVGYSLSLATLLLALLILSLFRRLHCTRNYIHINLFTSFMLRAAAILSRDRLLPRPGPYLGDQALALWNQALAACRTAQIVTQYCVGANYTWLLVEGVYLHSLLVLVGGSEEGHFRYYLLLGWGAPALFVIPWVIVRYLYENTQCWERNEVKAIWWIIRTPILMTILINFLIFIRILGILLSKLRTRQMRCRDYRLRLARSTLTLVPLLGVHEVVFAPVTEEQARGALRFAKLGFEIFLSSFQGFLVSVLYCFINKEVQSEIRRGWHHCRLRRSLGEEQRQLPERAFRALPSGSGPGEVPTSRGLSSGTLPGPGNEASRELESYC

[9] = target: T4, human glucagon-like peptide 1 receptor (hGLP-1R) (human, UniProt P43220 24-463); experiment: SPA competition against 125I-labelled GLP-1 amide on 293HEK hGLP-1R membranes, Cheng-Prusoff
T4 construct: whole, on cells; Assay used crude plasma membranes of the expressing 293HEK cells

[10] = Buffer 1 (20 mM Histidine, pH 6.0)
[11] = Buffer 2 (10 mM Histidine, 150 nM NaCl, pH 6.0)
[12] = Buffer 3 (10 mM Histidine, 300 mM sorbitol, pH 6.0)
[13] = Buffer 4 (10 mM Histidine, 0.02% Tween 80, pH 6.0)
[14] = Buffer 5 (10 mM Histidine, 300 mM sucrose, pH 6.0)

- solubility [1]: maintains good solubility
- 30° C. vs 4° C. Recovery 4 wk ([1]; Buffer P5 (pH 5.0)): 102%
- 40° C. vs 4° C. Recovery 4 wk ([1]; Buffer P5 (pH 5.0)): 99%
- 30° C. vs 4° C. Recovery 4 wk ([1]; Buffer P6 (pH 6.0)): 101%
- 40° C. vs 4° C. Recovery 4 wk ([1]; Buffer P6 (pH 6.0)): 103%
- % Main Peak Day 0 ([2]; Buffer P5 (pH 5)): 96.53%
- 4° C. % Main Peak ([2]; Buffer P5 (pH 5)): 96.93%
- 30° C. % Main Peak ([2]; Buffer P5 (pH 5)): 93.82%
- 40° C. % Main Peak ([2]; Buffer P5 (pH 5)): 91.59%
- main peak changes ([2]; Buffer P5, pH 5 at 4-wk 30° C. vs 4° C.): less than 4%
- main peak changes ([2]; Buffer P5, pH 5 at 4-wk 40° C. vs 4° C.): < 6%
- % Main Peak Day 0 ([2]; Buffer P6 (pH 6)): 97.00%
- 4° C. % Main Peak ([2]; Buffer P6 (pH 6)): 95.89%
- 30° C. % Main Peak ([2]; Buffer P6 (pH 6)): 95.17%
- 40° C. % Main Peak ([2]; Buffer P6 (pH 6)): 90.57%
- main peak changes ([2]; Buffer P6, pH 6 at 4-wk 30° C. vs 4° C.): < 1%
- main peak changes ([2]; Buffer P6, pH 6 at 4-wk 40° C. vs 4° C.): < 6%
- fibrillation as measured by the Thioflavin T binding assay ([3]; pH 6, 96 hours, mechanical stress): did not demonstrate fibrillation
- Thioflavin T fluorescence t = 0 h [3, 10]: 84.5 fluorescence units
- Thioflavin T fluorescence t = 48 h [3, 10]: 89.5 fluorescence units
- Thioflavin T fluorescence t = 96 h [3, 10]: 98.1 fluorescence units
- Thioflavin T fluorescence t = 0 h [3, 11]: 188.4 fluorescence units
- Thioflavin T fluorescence t = 48 h [3, 11]: 211.6 fluorescence units
- Thioflavin T fluorescence t = 96 h [3, 11]: 231.4 fluorescence units
- Thioflavin T fluorescence t = 0 h [3, 12]: 83.6 fluorescence units
- Thioflavin T fluorescence t = 48 h [3, 12]: 90.9 fluorescence units
- Thioflavin T fluorescence t = 96 h [3, 12]: 101.7 fluorescence units
- Thioflavin T fluorescence t = 0 h [3, 13]: 70.1 fluorescence units
- Thioflavin T fluorescence t = 48 h [3, 13]: 76.9 fluorescence units
- Thioflavin T fluorescence t = 96 h [3, 13]: 83.9 fluorescence units
- Thioflavin T fluorescence t = 0 h [3, 14]: 86.3 fluorescence units
- Thioflavin T fluorescence t = 48 h [3, 14]: 87.5 fluorescence units
- Thioflavin T fluorescence t = 96 h [3, 14]: 98.9 fluorescence units
Molecule: CC(C)C[C@H](NC(=O)[C@H](Cc1c[nH]c2ccccc12)NC(=O)[C@H](CCC(=O)O)NC(=O)[C@@H](NC(=O)[C@H](Cc1ccccc1)NC(=O)[C@H](CCC(=O)O)NC(=O)[C@H](CCC(N)=O)NC(=O)[C@H](C)NC(=O)[C@H](CCCCN)NC(=O)[C@H](CCCCN)NC(=O)C(C)(C)NC(=O)[C@H](CC(=O)O)NC(=O)[C@H](CC(C)C)NC(=O)[C@H](Cc1ccc(O)cc1)NC(=O)[C@H](CCCCN)NC(=O)[C@H](CO)NC(=O)[C@H](Cc1ccc(O)cc1)NC(=O)[C@H](CC(=O)O)NC(=O)[C@H](CO)NC(=O)[C@@H](NC(=O)[C@H](Cc1ccccc1)NC(=O)[C@@H](NC(=O)CNC(=O)[C@H](CCC(N)=O)NC(=O)[C@H](CO)NC(=O)[C@@H](N)Cc1ccc(O)cc1)[C@@H](C)O)[C@@H](C)O)C(C)C)C(=O)N[C@@H](CC(C)C)C(=O)N[C@@H](CCCCN)C(=O)N[C@H](C(=O)NCC(=O)N1CCC[C@H]1C(=O)N[C@@H](CO)C(=O)N[C@@H](CO)C(=O)NCC(=O)N[C@@H](C)C(=O)N1CCC[C@H]1C(=O)N1CCC[C@H]1C(=O)N[C@@H](CCCCN)C(=O)N[C@@H](CO)C(=O)N[C@@H](CCCCN)C(N)=O)[C@@H](C)O [SEQ ID NO: 2] (H-YSQGTFTSDYSKYLD[Aib]KKAQEFVEWLLKTGPSSGAPPKSK-NH2; N-terminus assumed)
- Physical appearance ([1]; 4° C., 30° C. and 40° C., pH 5 and pH 6, over 4 weeks): clear to colorless, with no opalescences and no particles
- Blood glucose levels ([4]; 0.3 μg/kg subcutaneously, 0 minutes): 140.2 ± 2.4 mg/dL
- Blood glucose levels ([4]; 0.3 μg/kg subcutaneously, 15 minutes): 185.6 ± 7.5 mg/dL
- Blood glucose levels ([4]; 0.3 μg/kg subcutaneously, 30 minutes): 193.3 ± 6.0 mg/dL
- Blood glucose levels ([4]; 0.3 μg/kg subcutaneously, 60 minutes): 167.4 ± 6.6 mg/dL
- Blood glucose levels ([4]; 0.3 μg/kg subcutaneously, 120 minutes): 147.0 ± 5.1 mg/dL
- Blood glucose levels ([4]; 1 μg/kg subcutaneously, 0 minutes): 140.0 ± 2.0 mg/dL
- Blood glucose levels ([4]; 1 μg/kg subcutaneously, 15 minutes): 200.6 ± 5.8 mg/dL
- Blood glucose levels ([4]; 1 μg/kg subcutaneously, 30 minutes): 204.8 ± 8.9 mg/dL
- Blood glucose levels ([4]; 1 μg/kg subcutaneously, 60 minutes): 161.9 ± 4.0 mg/dL
- Blood glucose levels ([4]; 1 μg/kg subcutaneously, 120 minutes): 145.6 ± 3.9 mg/dL
- Blood glucose levels ([4]; 3 μg/kg subcutaneously, 0 minutes): 141.5 ± 3.0 mg/dL
- Blood glucose levels ([4]; 3 μg/kg subcutaneously, 15 minutes): 245.5 ± 10.0 mg/dL
- Blood glucose levels ([4]; 3 μg/kg subcutaneously, 30 minutes): 265.6 ± 13.3 mg/dL
- Blood glucose levels ([4]; 3 μg/kg subcutaneously, 60 minutes): 188.1 ± 9.3 mg/dL
- Blood glucose levels ([4]; 3 μg/kg subcutaneously, 120 minutes): 143.9 ± 3.8 mg/dL
- Blood glucose levels ([4]; 10 μg/kg subcutaneously, 0 minutes): 147.7 ± 4.4 mg/dL
- Blood glucose levels ([4]; 10 μg/kg subcutaneously, 15 minutes): 252.3 ± 11.2 mg/dL
- Blood glucose levels ([4]; 10 μg/kg subcutaneously, 30 minutes): 271.8 ± 13.8 mg/dL
- Blood glucose levels ([4]; 10 μg/kg subcutaneously, 60 minutes): 202.1 ± 7.9 mg/dL
- Blood glucose levels ([4]; 10 μg/kg subcutaneously, 120 minutes): 146.3 ± 5.5 mg/dL
- ED50 ([4]; calculated on the 30 minute glucose measurements, 10 μg/kg taken as maximum, subcutaneous): 1.36 µg/kg

- EC50, hGR stimulated cAMP functional assay (HTRF, hGR-HEK293 cells) [5]: 0.0203 nM
- Ki [6]: 0.286 nM
- Ki [7]: 1.82 nM
- Ki [8]: 532 nM
- Ki [9]: 2540 nM
B1: compound of SEQ ID NO: 2 (peptide)
peptide: YSQGTFTSDYSKYLD[Aib]KKAQEFVEWLLKTGPSSGAPPKSK-NH2
modifications: also: acetate salt
notes: Synthetic peptide made on Rink amide resin; acetate salt

From patent publication US20160311882A1, “Novel Compound for Treatment of Severe Hypoglycemia” (ELI LILLY AND COMPANY, priority 2013, published 2016)
